Measured values as given in patent US20230279020A9, “CARM1 INHIBITORS AND USES THEREOF” (Epizyme, Inc., priority 2013, published 2023).

Target: Human CARM1 (PRMT4) (Homo sapiens (Human), UniProt Q86X55)
Assay: CARM1 enzyme assay on peptide substrate (3H-SAM Flashplate)
Settings: Biochemical potencies, classification codes; read-out: Biochem IC50

Human CARM1 (PRMT4), sequence (Q86X55 other isoform, or with tags, fused parts or gaps isoform Q86X55-1): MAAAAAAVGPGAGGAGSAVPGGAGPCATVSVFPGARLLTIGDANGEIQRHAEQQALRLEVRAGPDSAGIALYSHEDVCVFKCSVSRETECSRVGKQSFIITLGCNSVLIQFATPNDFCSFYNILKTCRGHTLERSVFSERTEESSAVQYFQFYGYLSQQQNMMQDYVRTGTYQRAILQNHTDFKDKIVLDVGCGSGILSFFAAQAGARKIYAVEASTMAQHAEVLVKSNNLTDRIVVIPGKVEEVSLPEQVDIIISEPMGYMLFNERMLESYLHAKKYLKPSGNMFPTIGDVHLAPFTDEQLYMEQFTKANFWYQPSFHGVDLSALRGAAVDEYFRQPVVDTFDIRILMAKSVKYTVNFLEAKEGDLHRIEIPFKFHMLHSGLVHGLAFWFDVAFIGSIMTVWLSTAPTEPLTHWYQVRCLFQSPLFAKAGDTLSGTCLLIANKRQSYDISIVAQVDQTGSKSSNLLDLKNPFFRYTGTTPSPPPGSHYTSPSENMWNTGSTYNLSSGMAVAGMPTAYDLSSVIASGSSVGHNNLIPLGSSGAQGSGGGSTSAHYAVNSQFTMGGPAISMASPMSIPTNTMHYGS

Compound	IC50 [nM]
CNCC(O)COc1cccc(-c2nc(NC3CCOC3=O)cc(-c3c(C)noc3C)n2)c1 (stereo not drawn) [Example 23-1a]	< 100
CNCC(O)COc1cccc(-c2nc(-c3c(C)noc3C)cc(N3C[C@@H]4C[C@H]3CN4C(=O)OC)n2)c1 (stereo partly drawn) [Example 105-1a]	< 100
CNCC(O)COc1cccc(-c2nc(-c3c(C)noc3C)c(C)c(N3CCO[C@H](CNC)C3)n2)c1 (stereo partly drawn) [Example 129-1a]	< 100
CNCC(O)COc1cccc(-c2nc(C3CCN(C(=O)N(C)C)[C@@H](C)C3)cc(N(C)C3CCOCC3)n2)c1 (stereo partly drawn) [Example 509-1a]	100 to 1000
CNC[C@@H](O)COc1cccc(-c2nc(N3CC4(CCNCC4)c4ccccc43)cc(N(C)C3CCOCC3)n2)c1 [Example 558-1a]	< 100
CNCC(O)COc1cccc(-c2nc(-c3cnc4n3CCNC4)cc(N(C)C3CCOCC3)n2)c1 (stereo not drawn) [Example 563-1a]	< 100
CNCC(O)COc1cccc(-c2nc(-c3cnc4ccnn4c3)cc(N(C)C3CCOCC3)n2)c1 (stereo not drawn) [Example 564-1a]	< 100
CCOC(=O)c1sc(-c2cc(N(C)C3CCOCC3)nc(-c3cccc(OCC(O)CNC)c3)n2)nc1C (stereo not drawn) [Example 565-1a]	< 100
CNCC(O)COc1cccc(-c2nc(N3CC4CCC(C3)O4)cc(N(C)C3CCOCC3)n2)c1 (stereo not drawn) [Example 566-1a]	< 100
CNCC(O)COc1cccc(-c2nc(N(C)C3CCOCC3)c(C)c(N3CCNC[C@@H]3C)n2)c1 (stereo partly drawn) [Example 567-1a]	< 100
CNCC(O)COc1cccc(-c2nc(N(C)C3CCOCC3)cc(-n3nc(C)cc3C)n2)c1 (stereo not drawn) [Example 568-1a]	< 100
CNCC(O)COc1cccc(-c2nc(-c3sc(C)nc3C)cc(N(C)C3CCOCC3)n2)c1 (stereo not drawn) [Example 569-1a]	< 100
CNCC(O)COc1cccc(-c2nc(-c3cc4ccccc4o3)cc(N(C)C3CCOCC3)n2)c1 (stereo not drawn) [Example 570-1a]	< 100
CNC[C@@H](O)COc1cccc(-c2nc(-c3c[nH]c4ncncc34)cc(N(C)C3CCOCC3)n2)c1 [Example 571-1a]	< 100
CNCC(O)COc1cccc(-c2nc(-c3cnc(CO)n3C)cc(N(C)C3CCOCC3)n2)c1 (stereo not drawn) [Example 572-1a]	< 100
CNCC(O)COc1cccc(-c2nc(SC)cc(N(C)C3CCOCC3)n2)c1 (stereo not drawn) [Example 573-1a]	< 100
CNCC(O)COc1cc(Cl)cc(-c2nc(-c3ccncc3)c(C3CC3)c(N(C)C3CCOCC3)n2)c1 (stereo not drawn) [Example 574-1a]	< 100
CNCC(O)COc1cccc(-c2nc(N3CCNC(=O)C3)cc(N(C)C3CCOCC3)n2)c1 (stereo not drawn) [Example 575-1a]	< 100
CNCC(O)COc1cccc(-c2nc(N3CCN4C(=O)OC[C@@H]4C3)cc(N(C)C3CCOCC3)n2)c1 (stereo partly drawn) [Example 576-1a]	< 100
CNCC(O)COc1cc(Cl)cc(-c2nc(C(=O)N(C)CC3CCOCC3)cc(N(C)C3CCOCC3)n2)c1 (stereo not drawn) [Example 577-1a]	< 100
CNCC(O)COc1cccc(-c2nc(N3CCN(CCF)[C@@H](C)C3)cc(N(C)C3CCOCC3)n2)c1 (stereo partly drawn) [Example 578-1a]	< 100
CNCC(O)COc1cccc(-c2nc(N3CCC4(CCO4)CC3)cc(N(C)C3CCOCC3)n2)c1 (stereo not drawn) [Example 579-1a]	< 100
CNCC(O)COc1cccc(-c2nc(-c3cncn3C)cc(N(C)C3CCOCC3)n2)c1 (stereo not drawn) [Example 580-1a]	< 100
CNCC(O)COc1cccc(-c2nc(N3CCN(C(=O)OC)[C@@H](C)C3)cc(N(C)C3CCOCC3)n2)c1 (stereo partly drawn) [Example 581-1a]	< 100

Compound	IC50 [nM]
CNCC(O)COc1cc(Cl)cc(-c2nc(-c3ccnc(N(C)C)c3)cc(N(C)C3CCOCC3)n2)c1 (stereo not drawn) [Example 609-1a]	< 100
CNCC(O)COc1cc(Cl)cc(-c2nc(-c3cnn(C)c3)cc(N(C)C3CCOCC3)n2)c1 (stereo not drawn) [Example 610-1a]	< 100
CNCC(O)COc1cc(Cl)cc(-c2nc(-c3ccncc3)c(Br)c(N(C)C3CCOCC3)n2)c1 (stereo not drawn) [Example 611-1a]	< 100
CNCC(O)COc1cc(Cl)cc(-c2nc(-c3cnc4ccccc4n3)c(C)c(N(C)C3CCOCC3)n2)c1 (stereo not drawn) [Example 612-1a]	< 100
CNCC(O)COc1cccc(-c2nc(-c3ccc(C(F)(F)F)nc3)cc(N(C)C3CCOCC3)n2)c1 (stereo not drawn) [Example 613-1a]	< 100
CNCC(O)COc1cc(Cl)cc(-c2nc(-c3ccc(N(C)C)nc3)c(C)c(N(C)C3CCOCC3)n2)c1 (stereo not drawn) [Example 614-1a]	< 100
CNCC(O)COc1cccc(-c2nc(C3CCNCC3)cc(N(C)C3CCOCC3)n2)c1 (stereo not drawn) [Example 615-1a]	< 100
CNCC(O)COc1cccc(-c2nc(-c3cccc4ncccc34)cc(N(C)C3CCOCC3)n2)c1 (stereo not drawn) [Example 616-1a]	< 100
CNCC(O)COc1cc(Cl)cc(-c2nc(-c3cn[nH]c3)c(C)c(N(C)C3CCOCC3)n2)c1 (stereo not drawn) [Example 617-1a]	< 100
CNCC(O)COc1cc(Cl)cc(-c2nc(N(C)C3CCOCC3)c(C)c(-n3cccn3)n2)c1 (stereo not drawn) [Example 618-1a]	< 100
C=C(C)c1cc(N(C)C2CCOCC2)nc(-c2cc(Cl)cc(OCC(O)CNC)c2)n1 (stereo not drawn) [Example 619-1a]	< 100
CNCC(O)COc1cccc(-c2nc(-c3cnc4nccn4c3)cc(N(C)C3CCOCC3)n2)c1 (stereo not drawn) [Example 620-1a]	< 100
CNCC(O)COc1cccc(-c2nc(C3=CCCC3)cc(N(C)C3CCOCC3)n2)c1 (stereo not drawn) [Example 621-1a]	< 100
CNCC(O)COc1cccc(-c2nc(-c3cccc(C#N)c3)cc(N(C)C3CCOCC3)n2)c1 (stereo not drawn) [Example 622-1a]	< 100
CNCC(O)COc1cc(Cl)cc(-c2nc(C(=O)OC)cc(N(C)C3CCOCC3)n2)c1 (stereo not drawn) [Example 623-1a]	< 100
CNCC(O)COc1cccc(-c2nc(-c3nc(C)cs3)cc(N(C)C3CCOCC3)n2)c1 (stereo not drawn) [Example 624-1a]	< 100
CNCC(O)COc1cc(Cl)cc(-c2nc(-c3ccncc3)cc(N3CCOCC3)n2)c1 (stereo not drawn) [Example 632-1a]	< 100
CNCC(O)COc1cccc(-c2nc(NC3CCOCC3)c(C)c(N3CCN(C(C)C)CC3)n2)c1 (stereo not drawn) [Example 644-1a]	< 100
CNCC(O)COc1cccc(-c2nc(NC3CCOCC3)cc(-c3ccc4c(c3)OCCO4)n2)c1 (stereo not drawn) [Example 657-1a]	< 100
CNCC(O)COc1cccc(-c2nc(NC3CCOCC3)cc(-c3ccc(OC)c(OC)c3)n2)c1 (stereo not drawn) [Example 658-1a]	< 100
CNCC(O)COc1cc(Cl)cc(-c2nc(NC3CCNCC3)cc(-c3ccncc3)n2)c1 (stereo not drawn) [Example 665-1a]	< 100
CNCC(O)COc1cccc(-c2nc(-c3ccncc3)cc(N(C)C3CCNCC3)n2)c1 (stereo not drawn) [Example 669-1a]	< 100
CNCC(O)COc1cccc(-c2nc(C(=O)NC3CCOCC3)c(C)c(C(=O)NC3CCOCC3)n2)c1 (stereo not drawn) [Example 677-1a]	> 10000
CCN(CC)c1nc(-c2cccc(OCC(O)CNC)c2)nc(N2CCOCC2)c1C (stereo not drawn) [Example 682-1a]	< 100

Tested on: asymmetric di-methyl PABP1 in RKO cells
Assay: RKO methylation assay, In Cell Western (ICW) for asymmetric di-methyl PABP1
Type: cell-based
Settings: Cellular potencies; PABP1me2a ICW
Source text: RKO adherent cells were purchased from ATCC (American Type Culture Collection), Manassas, Va., USA. DMEM/Glutamax medium, penicillin-streptomycin, heat inactivated fetal bovine serum, 0.05% trypsin and D-PBS were purchased from Life Technologies, Grand Island, N.Y., USA. Odyssey blocking buffer, 800CW goat anti-rabbit IgG (H+L) antibody, and Licor Odyssey infrared scanner were purchased from Licor Biosciences, Lincoln, Nebr., USA. Asymmetric di-methyl PABP1 antibody was purchased from Cell Signaling Technology, Danvers, Mass., USA. Methanol was purchased from VWR, Franklin, Mass., USA. 10% Tween 20 was purchased from KPL, Inc., Gaithersburg, Md., USA. Paraformaldehyde (PFA) was purchased from EM Sciences. DRAQ5 was purchased from Biostatus Limited, Leicestershire, UK.
RKO adherent cells were maintained in growth medium (DMEM/Glutamax medium supplemented with 10% v/v heat inactivated fetal bovine serum and 100 units/mL penicillin-streptomycin) and cultured at 37° C. under 5% CO2.
Cell treatment, In Cell Western (ICW) for detection of asymmetric di-methyl PABP1 and DNA content: RKO cells were seeded in assay medium at a concentration of 30,000 cells per mL to a poly-D-lysine coated 384 well culture plate (BD Biosciences 356697) with 50 μL per well. Compound (100 nL) from a 96-well source plate was added directly to 384 well cell plate. Plates were incubated at 37° C., 5% CO2 for 48 hours. After two days of incubation, plates were brought to room temperature outside of the incubator for ten minutes and blotted on paper towels to remove cell media. Cells were fixed for 20 minutes at room temperature by adding 50 ul of 8% PFA followed by aspiration of supernatant with the Biotek EL406 plate washer. Cells were then permeabilized by addition of 50 μL of ice cold 100% methanol directly to each well and incubated for 30 min at room temperature. After 30 min, plates were transferred to a Biotek EL406 plate washer and washed 2 times with 100 μL per well of wash buffer (1×PBS). Next 60 μL per well of Odyssey blocking buffer (Odyssey Buffer with 0.1% Tween 20 (v/v)) were added to each plate and incubated 1 hour at room temperature. Blocking buffer was removed and 20 μL per well of primary antibody was added (asymmetric-methyl PABP1) diluted 1:400 in Odyssey buffer with 0.1% Tween 20 (v/v)) and plates were incubated overnight (16 hours) at 4° C. Plates were washed 5 times with 100 μL per well of wash buffer. Next 20 μL per well of secondary antibody was added (1:800 800CW goat anti-rabbit IgG (H+L) antibody, 1:2000 DRAQ5 in Odyssey buffer with 0.1% Tween 20 (v/v)) and incubated for 1 hour at room temperature. The plates were washed 5 times with 100 μL per well wash buffer then 2 times with 100 μL per well of water. Plates were allowed to dry at room temperature then imaged on the Licor Odyssey machine which measures integrated intensity at 700 nm and 800 nm wavelengths. Both 700 and 800 channels were scanned.
First, the ratio for each well was determined by:
Each plate included fourteen control wells of DMSO only treatment (minimum inhibition) as well as fourteen control wells for maximum inhibition treated with 20 μM of a reference compound. The average of the ratio values for each control type was calculated and used to determine the percent […] for each test well in the plate. Reference compound was serially diluted three-fold in DMSO for a total of nine test concentrations, beginning at 20 μM.
Percent inhibition was determined and IC50 curves were generated using triplicate wells per concentration of compound.

Compound	IC50 [nM]
CNCC(O)COc1cccc(-c2nc(NC3CCOC3=O)cc(-c3c(C)noc3C)n2)c1 (stereo not drawn) [Example 24-1a]	10000 to 20000
CNCC(O)COc1cccc(-c2nc(-c3c(C)noc3C)cc(N3C[C@@H]4C[C@H]3CN4C(=O)OC)n2)c1 (stereo partly drawn) [Example 105-1a]	5000 to 10000
CNCC(O)COc1cccc(-c2nc(-c3c(C)noc3C)c(C)c(N3CCO[C@H](CNC)C3)n2)c1 (stereo partly drawn) [Example 129-1a]	10000 to 20000
CNC[C@@H](O)COc1cccc(-c2nc(N3CC4(CCNCC4)c4ccccc43)cc(N(C)C3CCOCC3)n2)c1 [Example 558-1a]	10000 to 20000

Same assay, conditions: Homo sapiens, RKO, Cellular potencies; PABP1me2a ICW

Compound	IC50 [nM]
CNCC(O)COc1cccc(-c2nc(NC3CCOC3=O)cc(-c3c(C)noc3C)n2)c1 (stereo not drawn) [Example 23-1a]	10000 to 20000
CNCC(O)COc1cccc(-c2nc(N[C@@H]3CCOC3)c(C)c(N3CCC(n4c(C)nnc4C)CC3)n2)c1 (stereo partly drawn) [Example 390-1a]	5000 to 10000
CNCC(O)COc1cccc(-c2nc(N[C@@H]3CCOC3)c(C)c(-c3ccc4nccn4c3)n2)c1 (stereo partly drawn) [Example 445-1a]	10000 to 20000
CCS(=O)(=O)n1cc(-c2cc(N(C)C3CCOCC3)nc(-c3cccc(OCC(O)CNC)c3)n2)c2cncnc21 (stereo not drawn) [Example 484-1a]	< 5000
CNCC(O)COc1cccc(-c2nc(C3CCN(C(=O)N(C)C)[C@@H](C)C3)cc(N(C)C3CCOCC3)n2)c1 (stereo partly drawn) [Example 509-1a]	5000 to 10000
